Assays:
Test in all cases: Test B pre-/postemergence plant response
Format in all cases: in vivo
soybean (Glycine max) = settings: Preemergence
How it was run: (§1)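 Seeds were sown and sprayed preemergence, while plants at 2 to 18 cm (1- to 4-leaf stage) got postemergence sprays. Compounds were formulated in a non-phytotoxic solvent mixture with surfactant. After 13 to 15 days in a greenhouse, injury was rated visually against untreated controls, 0 (no effect) to 100 (complete control).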

[1] = test system: johnsongrass (Sorghum halepense); settings: Preemergence
How it was run: as §1

[2] = test system: morningglory (Ipomoea coccinea); settings: Preemergence
How it was run: as §1

[3] = test system: eastern black (E.B.) nightshade (Solanum ptycanthum); settings: Preemergence
How it was run: as §1

[4] = test system: Russian thistle (Salsola iberica); settings: Preemergence
How it was run: as §1

[5] = test system: wheat (Triticum aestivum); settings: Preemergence; for Wheat plant response rating: scale 0 to 100
How it was run: as §1

[6] = test system: green foxtail (Setaria viridis); settings: Preemergence
How it was run: as §1

[7] = test system: bermudagrass (Cynodon dactylon); settings: Preemergence; for Bermudagrass plant response rating: 8 g ai/ha
How it was run: as §1

[8] = test system: Italian ryegrass (Lolium multiflorum); settings: Preemergence
How it was run: as §1

[9] = test system: surinam grass (Brachiaria decumbens); settings: Preemergence; for Surinam Grass plant response rating: scale 0 to 100
How it was run: as §1

[10] = test system: cocklebur (Xanthium strumarium); settings: Preemergence; for Cocklebur plant response rating: 8 g ai/ha
How it was run: as §1

[11] = test system: large crabgrass (Digitaria sanguinalis); settings: Preemergence
How it was run: as §1

[12] = test system: goosegrass (Eleusine indica); settings: Preemergence
How it was run: as §1

[13] = 16 g ai/ha, scale 0 to 100 (0 no effect, 100 complete control)
[14] = 31 g ai/ha, scale 0 to 100 (0 no effect, 100 complete control)
[15] = 31 g ai/ha, 0 to 100 scale, 0 no effect, 100 complete control
[16] = 62 g ai/ha, 0 to 100 scale, 0 no effect, 100 complete control
[17] = scale 0 to 100 (0 no effect, 100 complete control)

## Cc1cc(-c2ccc(Cl)cc2)nn1-c1c(OS(=O)(=O)c2cccc3ccccc23)cnn(C)c1=O [Compound 47]
Soybean (Glycine max); [13]
  Plant response rating, Soybean: 0
Soybean (Glycine max); [14]
  Plant response rating, Soybean: 0
Soybean (Glycine max); 62 g ai/ha, scale 0 to 100
  Plant response rating, Soybean: 0
Soybean (Glycine max); 8 g ai/ha, scale 0 to 100
  Soybean plant response rating: 0
[1]; [13]
  Plant response rating, Johnsongrass: 75
[1]; [15]
  Plant response rating, Johnsongrass: 85
[1]; 62 g ai/ha, scale 0 to 100
  Plant response rating, Johnsongrass: 95
[1]; 8 g ai/ha, scale 0 to 100
  Johnsongrass plant response rating: 0
[2]; [13]
  Plant response rating, Morningglory: 0
[2]; [14]
  Plant response rating, Morningglory: 0
[2]; 62 g ai/ha, scale 0 to 100
  Plant response rating, Morningglory: 0
[2]; 8 g ai/ha, scale 0 to 100
  Morningglory plant response rating: 0
[3]; [13]
  Plant response rating, Nightshade, E. B.: 0
[3]; [14]
  Plant response rating, Nightshade, E. B.: 0
[3]; 62 g ai/ha, scale 0 to 100
  Plant response rating, Nightshade, E. B.: 0
[3]; 8 g ai/ha, scale 0 to 100
  Nightshade, E. B. plant response rating: 0
[4]; [13]
  Plant response rating, Russian Thistle: 0
[4]; [14]
  Plant response rating, Russian Thistle: 0
[4]; 62 g ai/ha, scale 0 to 100
  Plant response rating, Russian Thistle: 40
[4]; 8 g ai/ha, scale 0 to 100
  Russian Thistle plant response rating: 0
[5]; [13]
  Plant response rating, Wheat: 0
[5]; [14]
  Plant response rating, Wheat: 0
[5]; [16]
  Plant response rating, Wheat: 20
[5]; 8 g ai/ha
  Wheat plant response rating: 0
[6]; [13]
  Plant response rating, Foxtail, Green: 80
[6]; [15]
  Plant response rating, Foxtail, Green: 100
[6]; 62 g ai/ha, scale 0 to 100
  Plant response rating, Foxtail, Green: 100
[6]; 8 g ai/ha, scale 0 to 100
  Foxtail, Green plant response rating: 5
[7]; [17]
  Bermudagrass plant response rating: 60
[7]; [13]
  Plant response rating, Bermudagrass: 100
[7]; [15]
  Plant response rating, Bermudagrass: 100
[7]; 62 g ai/ha, scale 0 to 100
  Plant response rating, Bermudagrass: 100
[8]; [13]
  Plant response rating, Ryegrass, Italian: 80
[8]; [14]
  Plant response rating, Ryegrass, Italian: 90
[8]; 62 g ai/ha, scale 0 to 100
  Plant response rating, Ryegrass, Italian: 98
[8]; 8 g ai/ha, scale 0 to 100
  Ryegrass, Italian plant response rating: 0
[9]; [13]
  Plant response rating, Surinam Grass: 95
[9]; [14]
  Plant response rating, Surinam Grass: 98
[9]; [16]
  Plant response rating, Surinam Grass: 100
[9]; 8 g ai/ha
  Surinam Grass plant response rating: 80
[10]; [13]
  Plant response rating, Cocklebur: 0
[10]; [15]
  Plant response rating, Cocklebur: 0
[10]; 62 g ai/ha, scale 0 to 100
  Plant response rating, Cocklebur: 0
[10]; scale 0 to 100
  Cocklebur plant response rating: 0
[11]; [13]
  Plant response rating, Crabgrass, Large: 85
[11]; [15]
  Plant response rating, Crabgrass, Large: 100
[11]; 62 g ai/ha, scale 0 to 100
  Plant response rating, Crabgrass, Large: 100
[11]; 8 g ai/ha, scale 0 to 100
  Crabgrass, Large plant response rating: 0
[12]; [13]
  Plant response rating, Goosegrass: 98
[12]; [15]
  Plant response rating, Goosegrass: 100
[12]; 62 g ai/ha, scale 0 to 100
  Plant response rating, Goosegrass: 100
[12]; 8 g ai/ha, scale 0 to 100
  Goosegrass plant response rating: 70

## Cc1cc(-c2ccc(Cl)cc2)nn1-c1c(OS(=O)(=O)c2ccc(Cl)s2)cnn(C)c1=O [Compound 55]
Soybean (Glycine max); [14]
  Plant response rating, Soybean: 0
Soybean (Glycine max); 62 g ai/ha, scale 0 to 100
  Plant response rating, Soybean: 0
Soybean (Glycine max); 8 g ai/ha, scale 0 to 100
  Soybean plant response rating: 0
Soybean (Glycine max); 16 g ai/ha, scale 0 to 100
  Soybean plant response rating: 0
[1]; [15]
  Plant response rating, Johnsongrass: 70
[1]; 62 g ai/ha, scale 0 to 100
  Plant response rating, Johnsongrass: 95
[1]; 8 g ai/ha, scale 0 to 100
  Johnsongrass plant response rating: 0
[1]; 16 g ai/ha, scale 0 to 100
  Johnsongrass plant response rating: 15
[2]; [14]
  Plant response rating, Morningglory: 0
[2]; 62 g ai/ha, scale 0 to 100
  Plant response rating, Morningglory: 0
[2]; 8 g ai/ha, scale 0 to 100
  Morningglory plant response rating: 0
[2]; 16 g ai/ha, scale 0 to 100
  Morningglory plant response rating: 0
[3]; [14]
  Plant response rating, Nightshade, E. B.: 80
[3]; 62 g ai/ha, scale 0 to 100
  Plant response rating, Nightshade, E. B.: 100
[3]; 8 g ai/ha, scale 0 to 100
  Nightshade, E. B. plant response rating: 0
[3]; 16 g ai/ha, scale 0 to 100
  Nightshade, E. B. plant response rating: 0
[4]; [14]
  Plant response rating, Russian Thistle: 0
[4]; 62 g ai/ha, scale 0 to 100
  Plant response rating, Russian Thistle: 0
[4]; 8 g ai/ha, scale 0 to 100
  Russian Thistle plant response rating: 0
[4]; 16 g ai/ha, scale 0 to 100
  Russian Thistle plant response rating: 0
[5]; [14]
  Plant response rating, Wheat: 0
[5]; [16]
  Plant response rating, Wheat: 5
[5]; 16 g ai/ha
  Wheat plant response rating: 0
[6]; [15]
  Plant response rating, Foxtail, Green: 100
[6]; 62 g ai/ha, scale 0 to 100
  Plant response rating, Foxtail, Green: 100
[6]; 8 g ai/ha, scale 0 to 100
  Foxtail, Green plant response rating: 0
[6]; 16 g ai/ha, scale 0 to 100
  Foxtail, Green plant response rating: 90
[7]; [17]
  Bermudagrass plant response rating: 100
[7]; [13]
  Plant response rating, Bermudagrass: 100
[7]; [15]
  Plant response rating, Bermudagrass: 100
[7]; 62 g ai/ha, scale 0 to 100
  Plant response rating, Bermudagrass: 100
[8]; [14]
  Plant response rating, Ryegrass, Italian: 90
[8]; 62 g ai/ha, scale 0 to 100
  Plant response rating, Ryegrass, Italian: 100
[8]; 8 g ai/ha, scale 0 to 100
  Ryegrass, Italian plant response rating: 60
[8]; 16 g ai/ha, scale 0 to 100
  Ryegrass, Italian plant response rating: 70
[9]; [14]
  Plant response rating, Surinam Grass: 100
[9]; [16]
  Plant response rating, Surinam Grass: 100
[9]; 8 g ai/ha
  Surinam Grass plant response rating: 15
[9]; 16 g ai/ha
  Surinam Grass plant response rating: 50
[10]; [15]
  Plant response rating, Cocklebur: 0
[10]; 62 g ai/ha, scale 0 to 100
  Plant response rating, Cocklebur: 0
[10]; scale 0 to 100
  Cocklebur plant response rating: 0
[11]; [15]
  Plant response rating, Crabgrass, Large: 100
[11]; 62 g ai/ha, scale 0 to 100
  Plant response rating, Crabgrass, Large: 100
[11]; 8 g ai/ha, scale 0 to 100
  Crabgrass, Large plant response rating: 20
[11]; 16 g ai/ha, scale 0 to 100
  Crabgrass, Large plant response rating: 98
[12]; [15]
  Plant response rating, Goosegrass: 98
[12]; 62 g ai/ha, scale 0 to 100
  Plant response rating, Goosegrass: 100
[12]; 8 g ai/ha, scale 0 to 100
  Goosegrass plant response rating: 55
[12]; 16 g ai/ha, scale 0 to 100
  Goosegrass plant response rating: 90

Source: patent US20100267561A1, “HERBICIDAL PYRIDAZINONE DERIVATIVES” (priority 2007, published 2010)
